From patent publication US20050170989A1, “Fluorine-containing water-soluble nonionic surface-active compounds, use thereof and process for preparation of the compounds” (DAIKIN INDUSTRIES, LTD., priority 2002, published 2005) come the findings set out here.

Assay type in all cases: physicochemical
The nature of data set [1]: Static surface tension by the Wilhelmy method (plate method). The following applies: 0.1 wt. % aqueous solution, left 1 day, 25° C. The protocol:
For the measurement of surface tension, a uniform liquid was used that was obtained by heating each compound at about 60° C. The compounds were each dissolved in water to prepare 10 g of 0.1 wt. % aqueous solutions. After the aqueous solutions were left to stand for 1 day, the static surface tension thereof was measured at 25° C. according to the Wilhelmy method (plate method). The measurement instrument used was a “SURFACE TENSIOMETER CBVP-A3” (product of Kyowa Interface Science Co., Ltd.).

The nature of data set [2]: Dynamic surface tension by the maximum bubble pressure method. The following applies: 0.5 wt. % aqueous solution, 25° C., at 100 milliseconds. Here is the method:
For the measurement of dynamic surface tension, each compound was dissolved in water, heated if necessary, to prepare 80 g of 0.5 wt. % aqueous solutions. The dynamic surface tension thereof was measured at 25° C. according to the maximum bubble pressure method. The obtained value was that measured at 100 milliseconds. The measurement instrument used was a “KRUSS BUBBLE PRESSURE TENSIOMETER-BP2”.

Data set [3] can be described thus: Water solubility evaluation, observed with the naked eye. The conditions noted are these: 25° C.; for Water Solubility 1%: 1 wt. % aqueous mixture; for Water Solubility 5%: 5 wt. % aqueous mixture; for Water Solubility 50%: 50 wt. % aqueous mixture. The protocol:
For the evaluation of water solubility, a uniform liquid was used that was obtained by heating each compound at about 60° C. 5g aqueous mixtures were prepared at predetermined concentrations (1 wt. %, 5 wt. % and 50 wt. %) in capped sample bottles.

Turning to “C4F9—CH2CH(OH)CH2O—(CH2CH2O)40—C16H33 [Example 3]”, the “Static Surface Tension 0.10%” value in data set [1] came out at 30.5 mN/m. The “Dynamic Surface Tension 0.50%” value in data set [2] stood at 45 mN/m. In addition, in data set [3], the “Water Solubility 1%” value is listed as “Dissolved”, the “Water Solubility 5%” value was “Dissolved” and the “Water Solubility 50%” value is “Dissolved”.
Turning to “C4F9—CH2CH(OH)CH2O—(CH2CH2O)45—CH2CH(OH)CH2—C4F9 [Example 9]”, the “Static Surface Tension 0.10%” value in data set [1] is 19.1 mN/m. Moreover, in data set [2], the “Dynamic Surface Tension 0.50%” value came out at 34 mN/m. Moreover, in data set [3], the “Water Solubility 1%” value is listed as “Dissolved”, the “Water Solubility 5%” value is listed as “Dissolved” and the “Water Solubility 50%” value was “Dissolved”.
On to “C16H33O—(CH2CH2O)15—H [Comparative Example 8, reference compound]”, for which the “Static Surface Tension 0.10%” value in data set [1] is given as 37.5 mN/m. Also, the “Dynamic Surface Tension 0.50%” value in data set [2] is recorded as 59 mN/m. In data set [3], the “Water Solubility 1%” value is on record as “Dissolved”, the “Water Solubility 5%” value was “Suspended” and the “Water Solubility 50%” value was “Solid”.
As for “C4F9—CH2CH(OH)CH2O—(CH2CH2O)23—C16H33 [Example 1]”, the “Static Surface Tension 0.10%” value in data set [1] turned out to be 24.2 mN/m. The “Dynamic Surface Tension 0.50%” value in data set [2] was 34 mN/m. Besides, in data set [3], the “Water Solubility 1%” value is on record as “Dissolved”, the “Water Solubility 5%” value was “Dissolved” and the “Water Solubility 50%” value is given as “Dissolved”.
As for “C4F9—CH2CH(OH)CH2O—(CH2CH2O)35—CH2CH(OH)CH2—C4F9 [Example 8]”, the “Static Surface Tension 0.10%” value in data set [1] is on record as 18.6 mN/m. In addition, in data set [2], the “Dynamic Surface Tension 0.50%” value turned out to be 32 mN/m. Besides, in data set [3], the “Water Solubility 1%” value was “Dissolved”, the “Water Solubility 5%” value was “Dissolved” and the “Water Solubility 50%” value is reported as “Dissolved”.
Regarding “C4F9—CH2CH(OH)CH2O—(CH2CH2O)21—C12H25 [Example 5]”, in data set [1], the “Static Surface Tension 0.10%” value worked out at 21.9 mN/m. In data set [2], the “Dynamic Surface Tension 0.50%” value was 30 mN/m. In data set [3], the “Water Solubility 1%” value is recorded as “Dissolved”, the “Water Solubility 5%” value was “Dissolved” and the “Water Solubility 50%” value was “Dissolved”.
As to “C4F9—CH2CH(OH)CH2O—(CH2CH2O)20—C18H37 [Example 4]”, the “Static Surface Tension 0.10%” value in data set [1] came to 24.1 mN/m. In data set [2], the “Dynamic Surface Tension 0.50%” value came to 36 mN/m. For the same substance, in data set [3], the “Water Solubility 1%” value is listed as “Dissolved”, the “Water Solubility 5%” value was “Dissolved” and the “Water Solubility 50%” value is “Uniform gel”.
In the case of “C4F9—CH2CH(OH)CH2O—(CH2CH2O)23—CH2CH(OH)CH2—C4F9 [Example 7]”, the “Static Surface Tension 0.10%” value in data set [1] stood at 18.4 mN/m. In addition, the “Dynamic Surface Tension 0.50%” value in data set [2] worked out at 32 mN/m. Further, in data set [3], the “Water Solubility 1%” value is listed as “Dissolved”, the “Water Solubility 5%” value is “Dissolved” and the “Water Solubility 50%” value is reported as “Dissolved”.
“C4F9—CH2CH(OH)CH2O—(CH2CH2O)25—C12H25 [Example 6]”: the “Static Surface Tension 0.10%” value in data set [1] is recorded as 23.1 mN/m. For the same substance, in data set [2], the “Dynamic Surface Tension 0.50%” value was determined as 35 mN/m. Besides, in data set [3], the “Water Solubility 1%” value is “Dissolved”, the “Water Solubility 5%” value is recorded as “Dissolved” and the “Water Solubility 50%” value is “Dissolved”.
For “C18H33COO—(CH2CH2O)23—COC18H33 [Comparative Example 9, reference compound]”, the “Static Surface Tension 0.10%” value in data set [1] was 34.8 mN/m. Also, the “Dynamic Surface Tension 0.50%” value in data set [2] is listed as 61 mN/m. Also, in data set [3], the “Water Solubility 1%” value is “Dissolved”, the “Water Solubility 5%” value is “Dissolved” and the “Water Solubility 50%” value is “Uniform gel”.
Turning to “C4F9—CH2CH(OH)CH2O—(CH2CH2O)25—C16H33 [Example 2]”, the “Static Surface Tension 0.10%” value in data set [1] turned out to be 23.8 mN/m. Further, in data set [2], the “Dynamic Surface Tension 0.50%” value turned out to be 34 mN/m. Moreover, in data set [3], the “Water Solubility 1%” value is “Dissolved”, the “Water Solubility 5%” value is “Dissolved” and the “Water Solubility 50%” value is recorded as “Dissolved”.
